Values of other authors in US20060052448A1, “Use of methyl pyruvate or methyl pyruvic acid for the treatment of diseases of the nervous system and for protecting a human central nervous system against neuronal degeneration caused by defective intracellular energy production” (priority 2004, published 2006).
Like-named read-outs stand apart in the source and are kept apart here.

Columns and labels:
[1] = test system: porcine carotid artery strips
malate-aspartate shuttle [2] = conditions: mGPDH-deficient islets, both shuttles halted
malate-aspartate shuttle [3] = test system: malate-aspartate shuttle
[4] = test system: porcine carotid artery strips; conditions: 10 mM in PSS
pancreatic beta-cells [5] = test system: pancreatic beta-cells
[6] = test system: isolated rat pancreatic islets
K(ATP) channels = target: T1, K(ATP) channels (Homo sapiens, UniProt Q09428+Q14654)
T1 construct: endogenous in cells
T1 sequence (Q14654 whole entry): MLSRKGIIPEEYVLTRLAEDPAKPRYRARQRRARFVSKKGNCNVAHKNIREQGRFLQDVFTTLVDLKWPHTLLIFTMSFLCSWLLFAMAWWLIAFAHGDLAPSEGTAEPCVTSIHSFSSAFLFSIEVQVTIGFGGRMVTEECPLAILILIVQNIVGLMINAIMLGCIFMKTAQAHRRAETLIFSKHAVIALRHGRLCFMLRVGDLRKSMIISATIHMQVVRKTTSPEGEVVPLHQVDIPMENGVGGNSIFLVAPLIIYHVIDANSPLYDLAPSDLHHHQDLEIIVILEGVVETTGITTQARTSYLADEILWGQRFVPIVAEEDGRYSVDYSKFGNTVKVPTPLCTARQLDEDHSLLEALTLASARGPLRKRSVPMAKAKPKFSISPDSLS
T1 sequence (Q09428 whole entry): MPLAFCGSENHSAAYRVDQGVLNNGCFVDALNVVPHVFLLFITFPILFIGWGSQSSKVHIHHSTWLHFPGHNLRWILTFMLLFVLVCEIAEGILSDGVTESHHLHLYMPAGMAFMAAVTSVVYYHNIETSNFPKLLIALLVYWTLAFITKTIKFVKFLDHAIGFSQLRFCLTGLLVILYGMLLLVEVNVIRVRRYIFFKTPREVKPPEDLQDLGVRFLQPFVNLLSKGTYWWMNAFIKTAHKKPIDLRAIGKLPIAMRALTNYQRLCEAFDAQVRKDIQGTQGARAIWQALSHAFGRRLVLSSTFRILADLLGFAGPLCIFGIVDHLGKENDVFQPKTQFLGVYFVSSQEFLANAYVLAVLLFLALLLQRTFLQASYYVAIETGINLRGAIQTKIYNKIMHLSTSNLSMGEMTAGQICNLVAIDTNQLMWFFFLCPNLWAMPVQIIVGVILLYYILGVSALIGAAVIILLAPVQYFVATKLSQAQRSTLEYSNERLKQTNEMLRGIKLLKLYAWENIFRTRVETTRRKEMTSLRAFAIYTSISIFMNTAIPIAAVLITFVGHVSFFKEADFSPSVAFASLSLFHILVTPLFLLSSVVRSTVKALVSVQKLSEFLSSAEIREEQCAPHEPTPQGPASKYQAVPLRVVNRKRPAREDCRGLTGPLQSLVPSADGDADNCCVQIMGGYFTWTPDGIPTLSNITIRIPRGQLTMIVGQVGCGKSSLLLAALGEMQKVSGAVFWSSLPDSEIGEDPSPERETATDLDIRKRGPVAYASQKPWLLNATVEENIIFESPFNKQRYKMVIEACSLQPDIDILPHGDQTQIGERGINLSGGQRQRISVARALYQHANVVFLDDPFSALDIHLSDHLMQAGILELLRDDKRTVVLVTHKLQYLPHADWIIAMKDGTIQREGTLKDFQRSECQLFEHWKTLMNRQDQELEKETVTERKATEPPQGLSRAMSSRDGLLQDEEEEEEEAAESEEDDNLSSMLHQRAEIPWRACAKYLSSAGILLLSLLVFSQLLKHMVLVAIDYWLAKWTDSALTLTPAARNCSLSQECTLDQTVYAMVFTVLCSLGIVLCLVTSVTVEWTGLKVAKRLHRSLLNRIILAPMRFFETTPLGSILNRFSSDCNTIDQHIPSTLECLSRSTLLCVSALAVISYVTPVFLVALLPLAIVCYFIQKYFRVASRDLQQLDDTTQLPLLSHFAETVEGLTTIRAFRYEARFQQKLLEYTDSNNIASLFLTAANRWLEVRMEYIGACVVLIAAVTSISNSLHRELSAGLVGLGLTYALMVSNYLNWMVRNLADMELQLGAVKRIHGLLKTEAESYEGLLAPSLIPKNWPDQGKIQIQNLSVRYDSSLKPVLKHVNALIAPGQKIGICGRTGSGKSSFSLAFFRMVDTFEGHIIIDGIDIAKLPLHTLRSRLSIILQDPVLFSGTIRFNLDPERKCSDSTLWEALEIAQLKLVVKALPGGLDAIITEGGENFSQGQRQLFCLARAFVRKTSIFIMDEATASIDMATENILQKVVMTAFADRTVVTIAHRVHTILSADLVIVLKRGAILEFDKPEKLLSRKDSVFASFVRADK

whole islets = conditions: 5 mM
[7] = test system: Jurkat T-lymphocyte mitochondria
pancreatic beta-cells [8] = test system: pancreatic beta-cells; remark: listed apart in the source
pancreatic beta-cells [9] = test system: pancreatic beta-cells; remark: listed apart in the source
[10] = test system: isolated beta-cell mitochondria; conditions: in combination with glutamate
Na(+)-K(+)-ATPase = conditions: 10 microM

Compound: [Cl-].[K+] [KCl]
- change in resting tone ([1]; 10 mM KCl, glucose-PSS): -0.8 ± 0.8 g
- change in resting tone (increased contraction) ([1]; 10 mM KCl, lactate-PSS): 1.5 ± 0.7 g
- change in resting tone ([1]; 10 mM KCl, pyruvate-PSS): -2.1 ± 0.8 g
- EC50 ([1]; in glucose, read-out: EC50 of KCl concentration-response curve): 32.1 ± 0.9 mM

Compound: NOCC(=O)O [amino-oxyacetic acid]
- glucose-induced insulin secretion (malate-aspartate shuttle [2]): almost completely abrogated
- negative shift in cytosolic NAD+/NADH redox potential (malate-aspartate shuttle [3]): 26 mV

Compound: CC(O)C(=O)O (stereo not drawn) [lactate]
- increase in O2 consumption [4]: without effect

Compound: COC(=O)C(C)=O [methyl pyruvate]
- depolarization of the beta-cell membrane potential (pancreatic beta-cells [5]; 5-20 mM): depolarized the beta-cell in a concentration-dependent manner
- electrical activity (pancreatic beta-cells [5]; in the presence of 0.5 mM glucose): elicited electrical activity
- high concentration of the methyl ester giving negative insulinotropic action ([6]; and/or high D-glucose (16.7 mM)): 20.0 mM
- concentration of the ester at which positive insulinotropic action prevailed ([6]; low D-glucose, 2.8 to 8.3 mM): ≤ 10.0 mM
- K(ATP) current in standard whole-cell configuration (K(ATP) channels): inhibited
- block of KATP (K(ATP) channels): produced a block of KATP
- single-channel currents in inside-out patches (K(ATP) channels): blocked
- effect on ATP/ADP ratio in whole islets (whole islets): no effect
- cation current across the inner mitochondrial membrane [7]: directly inhibited
- increase in insulin secretion relative to that induced by glucose (pancreatic beta-cells [8]): 6 fold
- concentration of maximal effect on insulin secretion (pancreatic beta-cells [8]; absence of glucose): 5 mM
- ATP production or ATP/ADP ratio (pancreatic beta-cells [9]): did not influence
- NAD(P)H autofluorescence (pancreatic beta-cells [9]): slightly decreased
- NADH and NADPH response (NAD(P)H imaging and LipDH autofluorescence) (pancreatic beta-cells [9]): stimulated a robust NADH and NADPH response
- cytosolic free Ca(2+) concentration (pancreatic beta-cells [9]; after an initial decrease): increased
- ATP production (accumulation of ATP in the medium) [10]: higher than that induced by pyruvate/glutamate

Compound: C[C@@H]1O[C@@H](O[C@H]2C[C@@H](O)[C@]3(CO)[C@H]4[C@H](O)C[C@]5(C)[C@@H](C6=CC(=O)OC6)CC[C@]5(O)[C@@H]4CC[C@]3(O)C2)[C@H](O)[C@H](O)[C@H]1O [ouabain]
- glycolysis and lactate production (Na(+)-K(+)-ATPase): decreased glycolysis and lactate production
